The assay addresses SHP2 (Homo sapiens (Human), UniProt Q06124). As to the kind of experiment: SHP2 Allosteric Inhibition Assay (DiFMUP prompt fluorescence). It is filed as biochemical. To be noted: 0.25 nM SHP2 activated with 0.5 μM peptide IRS1_pY1172(dPEG8)pY1222; substrate DiFMUP 100 μM; 25° C.

SHP2, sequence (Q06124 whole entry): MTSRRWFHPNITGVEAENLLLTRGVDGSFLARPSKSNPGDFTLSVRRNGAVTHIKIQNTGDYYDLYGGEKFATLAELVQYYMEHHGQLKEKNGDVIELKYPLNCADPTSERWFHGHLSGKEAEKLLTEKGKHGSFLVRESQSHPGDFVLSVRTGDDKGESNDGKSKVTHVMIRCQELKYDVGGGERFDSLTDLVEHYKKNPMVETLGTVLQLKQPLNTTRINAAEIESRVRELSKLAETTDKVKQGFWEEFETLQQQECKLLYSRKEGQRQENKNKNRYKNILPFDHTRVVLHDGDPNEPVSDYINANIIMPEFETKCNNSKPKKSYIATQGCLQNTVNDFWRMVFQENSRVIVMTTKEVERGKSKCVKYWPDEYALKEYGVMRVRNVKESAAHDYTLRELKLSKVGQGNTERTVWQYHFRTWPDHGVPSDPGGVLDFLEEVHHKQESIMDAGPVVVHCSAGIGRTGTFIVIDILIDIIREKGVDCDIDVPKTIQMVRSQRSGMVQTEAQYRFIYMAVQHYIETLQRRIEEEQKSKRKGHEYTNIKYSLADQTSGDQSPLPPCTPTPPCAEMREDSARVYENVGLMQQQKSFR

By IC50 is commonly meant the concentration that inhibits the measured activity by half. A lower IC50 goes with inhibition by little substance. Compound `NC1CCOC12CCN(c1cnc3c(N4CCCc5ncccc54)n[nH]c3n1)CC2` (centres unmarked) [Compound 55, 8-(3-(3,4-dihydro-1,5-naphthyridin-1(2H)-yl)-1H-pyrazolo[3,4-b]pyrazin-6-yl)-1-oxa-8-azaspiro[4.5]decan-4-amine] returned an IC50 below 1000 nM. In the case of `CC(=O)N1CCN(c2n[nH]c3nc(N4CCC(C)(N)CC4)cnc23)c2ccccc21` [Compound 56] it was below 1000 nM; in that of `COc1cccc2c1CCCN2c1n[nH]c2nc(N3CCC(C)(CN)CC3)cnc12` [Compound 57], below 1000 nM; in that of `CC1(CN)CCN(c2cnc3c(N4CCCc5cc(C(N)=O)ccc54)n[nH]c3n2)CC1` [Compound 58, 1-(6-(4-(aminomethyl)-4-methylpiperidin-1-yl)-1H-pyrazolo[3,4-b]pyrazin-3-yl)-1,2,3,4-tetrahydroquinoline-6-carboxamide], below 1000 nM. Take `CC1(N)CCN(c2cnc3c(N4CCCc5c(-c6ccccn6)cccc54)n[nH]c3n2)CC1` [Compound 59]: the IC50 was below 1000 nM. In the case of `CC1(N)CCN(c2cnc3c(N4CCCc5c(-c6cccnc6)cccc54)n[nH]c3n2)CC1` [Compound 60] it was below 1000 nM. In the case of `Cn1cc(-c2cccc3c2CCCN3c2n[nH]c3nc(N4CCC(C)(N)CC4)cnc23)cn1` [Compound 61] it was below 1000 nM.

`Cn1cc(-c2ccc3c(n2)CCCN3c2n[nH]c3nc(N4CCC(C)(N)CC4)cnc23)cn1` [Compound 62] gave an IC50 below 1000 nM. In the case of `CC1(CN)CCN(c2cnc3c(N4CCCc5cc(C(F)(F)F)ccc54)n[nH]c3n2)CC1` [Compound 63] it was below 1000 nM; in that of `CC1(N)CCN(c2cnc3c(N4CCCc5c(-c6nccs6)cccc54)n[nH]c3n2)CC1` [Compound 64], below 1000 nM.

In the case of `CC1(CN)CCN(c2cnc3c(N4CCCc5c(-c6ccccc6)cccc54)n[nH]c3n2)CC1` [Compound 65], the IC50 is below 1000 nM.

For the compound `CC1(CN)CCN(c2cnc3c(N4CCCc5c(-c6cccnc6)cccc54)n[nH]c3n2)CC1` [Compound 66], the IC50 was below 1000 nM. In the case of `Cc1ccncc1-c1cccc2c1CCCN2c1n[nH]c2nc(N3CCC(C)(N)CC3)cnc12` [Compound 67] it was below 1000 nM; in that of `CC1(CN)CCN(c2cnc3c(N4CCN(c5cccnc5)c5ccccc54)n[nH]c3n2)CC1` [Compound 68], below 1000 nM; in that of `CC1(CN)CCN(c2cnc3c(N4CCCc5c(-c6ccc(F)cc6)cccc54)n[nH]c3n2)CC1` [Compound 69], below 1000 nM. In the case of `CC1(CN)CCN(c2cnc3c(N4CCCc5c(-c6ccc(F)c(F)c6)cccc54)n[nH]c3n2)CC1` [Compound 70] it was below 1000 nM. In the case of `CC1(N)CCN(c2cnc3c(N4CCCc5c(-c6nc(C(=O)O)cs6)cccc54)n[nH]c3n2)CC1` [Compound 71, 2-(1-(6-(4-amino-4-methylpiperidin-1-yl)-1H-pyrazolo[3,4-b]pyrazin-3-yl)-1,2,3,4-tetrahydroquinolin-5-yl)thiazole-4-carboxylic acid] it was below 1000 nM. In the case of `CC1(CN)CCN(c2cnc3c(N4CCCc5c(-c6cc(F)c(F)c(F)c6)cccc54)n[nH]c3n2)CC1` [Compound 72], the IC50 is below 1000 nM. In the case of `Cc1nnc2c(-c3cccc4c3CCCN4c3n[nH]c4nc(N5CCC(C)(CN)CC5)cnc34)cccn12` [Compound 73] it was below 1000 nM; in that of `CC1(CN)CCN(c2cnc3c(N4CCCc5c(-c6cccc(Oc7ccccc7)c6)cccc54)n[nH]c3n2)CC1` [Compound 75], below 1000 nM. In the case of `NCC1(F)CCN(c2cnc3c(N4CCCc5ncccc54)n[nH]c3n2)CC1` [Compound 76] it was below 1000 nM; in that of `CC1(CN)CCN(c2cnc3c(N4CCCc5cc(C#N)ccc54)n[nH]c3n2)CC1` [Compound 77], below 1000 nM. As for `CC1(CN)CCN(c2cnc3c(N4CCCc5c(C(F)F)cccc54)n[nH]c3n2)CC1` [Compound 78], the IC50 was below 1000 nM.
